Experimental data from patent publication US9363996B2, “Compositions and method for blocking ethylene response in field crops using 3-(cy-clopropyl-l-enyl)-propanoic salt” (Yissum Research Development Company of the Hebrew …, priority 2009, dated 2016).

Assays:
tobacco seedlings = experiment: Ethylene-induced leaf yellowing (senescence) of young tobacco seedlings; type: in vivo, tobacco (Nicotiana tabacum var. 'Samsun'); conditions: for ethylene-induced senescence (leaf yellowing): ethylene 10 μL L^−1
Experimental: (§1) (1) Abscission—This is a very sensitive model system for studying the effects of plant hormones. Ethylene induces the process of abscission, while auxin delays it. In the laboratory the experimental system is based on plant organ explants, which include the abscission zone. Abscission is induced by exposure to ethylene and at the termination of the experiment the number of abscised organs, usually either leaf blades or petioles are counted and the fraction of abscission is calculated. In the case of fruit, the decrease in fruit retention force is analyzed. In cotton, when WS-CPD (the ethylene-action antagonist herein disclosed) is tested, the whole plants or explants are pretreated by spraying with the antagonist, dissolved in a phosphate buffer solution (10-20 mM, pH 7.0) including 0.1% commercially available Kinetic™ as surfactant, and left to incubate for a predetermined time, usually between 6 and 24 h. The plants or explants are then further exposed for 24 h to ethylene gas (5 to 20 μL L^−1). The plants or explants are then ventilated and incubated for the required time under controlled conditions. At the end of the experiment the percentage of abscission is determined. (2) Chlorophyll degradation—This is a standard model for studying senescence. Plant material (whole plants, excised leaves or leaf discs) are pretreated. In cotton, tobacco and wheat, when WS-CPD is tested, the whole plants or explants are pretreated by spraying with the antagonist, dissolved in phosphate buffer solution (10-20 mM, pH 7.0) including 0.1% commercially available Kinetic™ surfactant, and left to incubate for a predetermined time, usually between 6 and 241. […] At the end of the experiment a dimethylsulfoxide (DMSO) extract of the plant tissue is prepared, and the chlorophyll content of the extract is determined by spectrophotometric analysis. […] The extent of ethylene-induced epinasty of leaves is determined by measuring the change of the angle between the petiole and the stem shoot or blade. […]

wheat plants [1] = experiment: Wheat grain weight at the milky stages after Ethephon treatment; type: in vivo, wheat (Triticum turgidum var. 'Gdera'); conditions: for grain yield increase by antagonizing Ethephon: fresh weight basis
Experimental: (1) Abscission—This is a very sensitive model system for studying the effects of plant hormones. Ethylene induces the process of abscission, while auxin delays it. In the laboratory the experimental system is based on plant organ explants, which include the abscission zone. Abscission is induced by exposure to ethylene and at the termination of the experiment the number of abscised organs, usually either leaf blades or petioles are counted and the fraction of abscission is calculated. In the case of fruit, the decrease in fruit retention force is analyzed. In cotton, when WS-CPD (the ethylene-action antagonist herein disclosed) is tested, the whole plants or explants are pretreated by spraying with the antagonist, dissolved in a phosphate buffer solution (10-20 mM, pH 7.0) including 0.1% commercially available Kinetic™ as surfactant, and left to incubate for a predetermined time, usually between 6 and 24 h. The plants or explants are then further exposed for 24 h to ethylene gas (5 to 20 μL L^−1). The plants or explants are then ventilated and incubated for the required time under controlled conditions. At the end of the experiment the percentage of abscission is determined. (2) Chlorophyll degradation—This is a standard model for studying senescence. Plant material (whole plants, excised leaves or leaf discs) are pretreated. In cotton, tobacco and wheat, when WS-CPD is tested, the whole plants or explants are pretreated by spraying with the antagonist, dissolved in phosphate buffer solution (10-20 mM, pH 7.0) including 0.1% commercially available Kinetic™ surfactant, and left to incubate for a predetermined time, usually between 6 and 241. The plants or explants are then further exposed for 24 h to ethylene gas (1 to 100 μL L^−1), or sprayed with Ethephon™ (wheat; 250 to 750 μL L^−1). The plants or explants are then ventilated and incubated for the required time under controlled conditions. At the end of the experiment a dimethylsulfoxide (DMSO) extract of the plant tissue is prepared, and the chlorophyll content of the extract is determined by spectrophotometric analysis. The chlorophyll content is reported either on a fresh, dry weight basis, or on a surface area basis. (3) Epinasty—This is also one of the classical methods for studying ethylene effects in plants. The extent of ethylene-induced epinasty of leaves is determined by measuring the change of the angle between the petiole and the stem shoot or blade. After exposure of the intact plant to ethylene, the upright grown leaves bend downward. The increase in the angle values (degrees) between petiole and the stem is used as a measure of the effect of the ethylene. When WS-CPD is tested on cotton and wheat plants, the whole plants are pretreated by spraying with the antagonist dissolved in phosphate buffer solution (10-20 mM, pH 7.6) including 0.1% Kinetic™ as surfactant, and left to incubate for a predetermined time, usually between 6 and 24 h. The plants are then further exposed for 24 h to ethylene gas (cotton, 5 to 10 μL L^−1), or sprayed with Ethephon™ (wheat, 250 to 750 μL L^−1). The plants are then ventilated and incubated for the required time under controlled conditions. The epinastic effect is expressed by measuring the degree values of the downward curvature between the blade and petiole (cotton, FIGS. 1-3) or between the blade and the stem (wheat, FIGS. 31 and 32). (4) Wheat Grain yield—This is a common test of the effects of exposure of monocot plants either to environmental stresses such as drought that induce senescence by increasing endogenous ethylene production. Excessive internal or external ethylene will accelerate senescence which will lead to reduced grain yield. In this project the intact plants were grown in the greenhouse up to the spike hading at milky stage I and II. The plants were then sprayed with the dissolved WS-CPD in phosphate buffer solution (10 mM, pH 7.6) including 0.1% Kinetic™ as surfactant. Young Cotton Seedlings […]

wheat seedlings = experiment: Third leaf growth of young wheat seedlings exposed to ethylene; type: in vivo, wheat (Triticum turgidum var. 'Gdera')
[2] = tested on: excised cotton leaves at different developmental stages; experiment: Ethylene-induced chlorophyll degradation in leaves of mature cotton plants; type: in vivo, cotton (Gossyium hirsutum barbadense L.)
Experimental: (§2) (1) Abscission—This is a very sensitive model system for studying the effects of plant hormones. Ethylene induces the process of abscission, while auxin delays it. In the laboratory the experimental system is based on plant organ explants, which include the abscission zone. Abscission is induced by exposure to ethylene and at the termination of the experiment the number of abscised organs, usually either leaf blades or petioles are counted and the fraction of abscission is calculated. In the case of fruit, the decrease in fruit retention force is analyzed. In cotton, when WS-CPD (the ethylene-action antagonist herein disclosed) is tested, the whole plants or explants are pretreated by spraying with the antagonist, dissolved in a phosphate buffer solution (10-20 mM, pH 7.0) including 0.1% commercially available Kinetic™ as surfactant, and left to incubate for a predetermined time, usually between 6 and 24 h. The plants or explants are then further exposed for 24 h to ethylene gas (5 to 20 μL L^−1). The plants or explants are then ventilated and incubated for the required time under controlled conditions. At the end of the experiment the percentage of abscission is determined. (2) Chlorophyll degradation—This is a standard model for studying senescence. Plant material (whole plants, excised leaves or leaf discs) are pretreated. In cotton, tobacco and wheat, when WS-CPD is tested, the whole plants or explants are pretreated by spraying with the antagonist, dissolved in phosphate buffer solution (10-20 mM, pH 7.0) including 0.1% commercially available Kinetic™ surfactant, and left to incubate for a predetermined time, usually between 6 and 241. The plants or explants are then further exposed for 24 h to ethylene gas (1 to 100 μL L^−1), or sprayed with Ethephon™ (wheat; 250 to 750 μL L^−1). The plants or explants are then ventilated and incubated for the required time under controlled conditions. At the end of the experiment a dimethylsulfoxide (DMSO) extract of the plant tissue is prepared, and the chlorophyll content of the extract is determined by spectrophotometric analysis. The chlorophyll content is reported either on a fresh, dry weight basis, or on a surface area basis. (3) Epinasty—This is also one of the classical methods for studying ethylene effects in plants. The extent of ethylene-induced epinasty of leaves is determined by measuring the change of the angle between the petiole and the stem shoot or blade. After exposure of the intact plant to ethylene, the upright grown leaves bend downward. The increase in the angle values (degrees) between petiole and the stem is used as a measure of the effect of the ethylene. […]

[3] = tested on: mature cotton leaf explants; experiment: Ethylene-induced petiole abscission of mature cotton leaf explants; type: in vivo, cotton (Gossyium hirsutum barbadense L.); conditions: for abscission: day 5
Experimental: as §2

pKa and ionisation state = type: physicochemical
Description: The IR spectrum (FIG. 60), UV-VIS spectrum (FIG. 61), and potentiometric titration (FIG. 62) are all consistent with the structure given above for WS-CPD. The IR peak of WS-CPD at C1=1773 cm^−1, and the peak of the C═O stretch in the IR and the UV-VIS peak is λmax 206nm.
Thus, under the normal conditions of use, e.g., pH 7.6-7.8, more than 99% of the compound is present in the anion form. […] The XRD pattern was obtained in a Rigaku Ultima sealed tube theta-theta diffractometer operating at a power level of 1.6 kW, with a step size of 0.02°, angular range of 10-60°, and speed of 0.5°/min. Analysis of the XRD pattern was performed using the Jade 8 program (MDI, Inc.). From the diffraction pattern, it appears that the powdered material is not homogeneous, but rather that there appear to be three distinct structural forms present, namely, an amorphous form, a poor quality crystalline form, and a crystalline form. The presence of the amorphous form is indicated by the prominent diffuse peak centered at 2θ˜23°. Superimposed on this broad peak are a number of sharp peaks, indicating the presence of a crystalline form. […] The effective crystallite sizes of the crystalline form were calculated using the Scherrer formula and found to be in the range of 300-700 Å. […] The following volume fractions were measured: amorphous—57.5%; poorly crystalline—39.5%; crystalline—3%. […]

wheat plants [4] = experiment: Ethephon-induced flag leaf epinasty of wheat plants after spike heading; type: in vivo, wheat (Triticum turgidum var. 'Gdera'); conditions: WS-CPD 135 and 415 μg mL^−1 pretreatment; Ethephon 750 μL L^−1
Experimental: as §1, with “The plants or explants are then further exposed for 24 h to ethylene gas (5 to 20 μL L^−1). The plants or explants are then ventilated and incubated for the required time under controlled conditions.” left out, “determined.” for “determined. (2) Chlorophyll degradation—This is a standard model for studying senescence. Plant material (whole plants, excised leaves or leaf discs) are pretreated. In cotton, tobacco and wheat, when WS-CPD is tested, the whole plants or explants are pretreated by spraying with the antagonist, dissolved in phosphate buffer solution (10-20 mM, pH 7.0) including 0.1% commercially available Kinetic™ surfactant, and left to incubate for a predetermined time, usually between 6 and 241.”

Structure (SMILES): O=C([O-])CCC1=CC1.[Na+] [WS-CPD, 3-cyclopropyl-1-enyl-propanoic sodium salt]
- ethylene-induced senescence (leaf yellowing) (tobacco seedlings; WS-CPD 14 μg mL^−1): antagonized the ethylene-induced senescence only in mature leaves
- ethylene-induced senescence (leaf yellowing) (tobacco seedlings; WS-CPD 127 μg mL^−1, young leaves): slightly effective
- leaf yellowing (tobacco seedlings; WS-CPD 14 to 127 μg mL^−1, ethylene 20 μL L^−1): very significantly inhibited
- Ethephon-induced decrease of grain weight (wheat plants [1]; WS-CPD 135 μg mL^−1 pretreatment at milky stage I, both milky stages): prevented the decrease
- overcoming the Ethephon reduction in grain weight (wheat plants [1]; WS-CPD 80 to 180 μg mL^−1): best results
- grain yield increase by antagonizing Ethephon (wheat plants [1]; milky stage I): ca. 5%
- grain yield increase by antagonizing Ethephon (wheat plants [1]; milky stage II): ca. 16%
- reversal of the inhibitory effect of ethylene on third leaf growth (wheat seedlings; WS-CPD 40 μg mL^−1, 1.6 ethylene): 100%
- inhibitory effect of ethylene on third leaf growth (wheat seedlings; WS-CPD 4 and 40 μg mL^−1 spray at day 10, ethylene 1.6 to 40 μg L^−1 (so in the source) 24 h later for two days): effectively antagonized
- ethylene-induced chlorophyll degradation ([2]; mature leaves, WS-CPD 480 μg L^−1 (so in the source)): less effective
- inhibition of ethylene-induced chlorophyll degradation ([2]; mature leaves, WS-CPD 90 and 240 μg mL^−1): 95%
- ethylene-induced chlorophyll degradation ([2]; young leaves, WS-CPD 10 μg mL^−1, ethylene 10 μL L^−1): completely antagonized
- ethylene-induced chlorophyll degradation ([2]; young leaves, WS-CPD 270 μg mL^−1): less effective
- abscission percentage ([3]; WS-CPD 90 μg mL^−1): slightly lower than that of the untreated air control
- abscission ([3]; WS-CPD 10, 30 and 90 μg mL^−1): 100%
- decrease of abscission ([3]; WS-CPD 10 and 30 μg mL^−1, after 3 days of incubation, ethylene 10 μL L^−1): 20%
- abscission ([3]; WS-CPD 240-480 μg mL^−1): 50%
- pKa (pKa and ionisation state; ambient temperature): > 4.5
- fraction of the compound present in the anion form (pKa and ionisation state; pH 7.6-7.8): more than 99%
- Ethephon-induced flag leaf epinasty (wheat plants [4]): partly protected
